According to US11992552B2, “Geometric configurations for gastric residence systems” (Lyndra Therapeutics, Inc., priority 2015, dated 2024):

Assays:
[1] = Shear-lap joint adhesion test (ASTM D3163) of enteric materials; assay type: physicochemical; settings: plasticizer with Eudragit L100-55 (70%/30% enteric material/plasticizer), acetone as solvent, PCL sheets
From the text: The influence of solvent (acetone, isopropyl alcohol, and ethyl acetate) and plasticizer (Eudragit NM, Plastoid B, Triethyl Citrate, and Triacetin) on the adhesion force of enteric materials were quantified using ASTM D3163, a standardized shear-lap joint mechanical test. The top figure A illustrates a side view of the experimental setup. Two 2-mm thick PCL (Mn 55 k) polymer sheets are adhered to an enteric material, Eudragit L100-55 (methyl methacrylate) combined with a plasticizer (in a 70%/30% enteric material/plasticizer ratio), using a solvent and pressure. The polymer sheets are then loaded into a tensile testing machine and pulled apart. The force/stress that causes the linker-polymer bond to break is recorded.

[2] = Behaviour over seven days in simulated gastric fluid; assay type: physicochemical

adhesion force [1]: greatest adhesion force
SMILES: CC(=O)OCC(COC(C)=O)OC(C)=O [Triacetin]
release of plasticizer from a polymer formulation [2]: releases from a polymer formulation in a time-dependent manner over seven days
